Data: PMC12363518, “Azobenzene-Modified Temperature-Responsive Short Elastin-like Peptides for Photo-Controlled Phase Transition” (ACS Synthetic Biology, 2025)
Numbered stars: 1 amine (or outer) side, 2 acyl side, 3 side chain; on linkers, the order of the positions; unused ones are H or OH. Bridge positions count the residues as written; N and C are the ends. Peptide text beside a SMILES is read from it. I, II: the chains in the order shown. X1 = O=C(c1ccc(N=Nc2ccc(C(=O)[*:2])cc2)cc1)[*:1]

Columns and labels:
[1] = Thermal isomerization in the dark and photostationary state, followed by UV–vis spectroscopy; format: physicochemical
Method: The thermal stability of the ELP–azobenzene conjugates was also investigated by using UV–vis spectroscopy. After measurements under “UV–vis–UV” conditions, each peptide solution was incubated in the dark, and spectral changes were monitored over time (Figure ). […] These findings indicate that the photoswitching behavior of this peptide was more readily controllable than that of the other analogues.
Additionally, the isomerization of Azb-2(K-F2) to a cis-enriched state was induced by irradiation with UV-A light (365 nm), which is a commercially available light source (Figure S4). […] On the other hand, when an LED light with a higher irradiance than that used for spectrum measurements was used as the light source, Azb-2(K-F2) reached a photostationary state in approximately 5 min (Figure S4B). Overall, based on the experimental results, Azb-2(K-F2) appears to be a promising easy-to-handle peptide with both temperature and photoresponsiveness.
The synthesized ELP–azobenzene conjugates were dissolved in PBS buffer (137 mM NaCl, 2.68 mM KCl, 10 mM Na2HPO4, and 2 mM KH2PO4, pH 7.4) to prepare 50 μM solutions. The time-dependent UV–vis spectra of each conjugate were recorded using a JASCO V-660 spectral photometer (JASCO Co., Tokyo) in a quartz cell (optical path length: 10 mm, volume: 400 μL). […] Initially, the absorption spectra of the dark-adapted solution of the ELP–azobenzene conjugate were measured to determine the irradiation wavelength corresponding to its π–π* band. Subsequently, the ELP–azobenzene conjugate solution was irradiated with light corresponding to the π–π* band for 60 min and the absorption spectra were recorded every 10 min. Next, the peptide solution was irradiated with visible light corresponding to the n–π* band for 60 min and the absorption spectra were recorded every 10 min. The peptide solution was then irradiated again with UV light for 60 min and the absorption spectra were recorded every 10 min. Finally, the peptide solution was incubated in the dark conditions and the absorption spectra were recorded every 1 h. […]

[2] = Turbidity measurement (OD600) of temperature-dependent phase separation, Tt; format: physicochemical
Method: The ability of the ELP–azobenzene conjugates to self-assemble was investigated by using turbidity measurements. In addition, we evaluated whether the photoisomerization of the azobenzene moieties induced differences in the aggregation ability of these analogues. Each peptide analogue was dissolved in PBS at different concentrations according to its water solubility. To quantitatively evaluate the aggregation ability, the transition temperature (T t) of the peptides was calculated from the change in optical density at a wavelength of 600 nm (OD600) associated with the increasing temperature (Table and Figure ).
The temperature-dependent self-assembly property of synthesized peptides was evaluated by using a JASCO V-660 spectral photometer (JASCO Co.). Each peptide was dissolved in PBS buffer or phosphate buffer solutions at various concentrations. Three types of phosphate buffers with the same ionic strength (μ = 0.100) but different pH (pH 7.4, 2.1, and 11.5) were prepared: phosphate buffer (pH 7.4, 29.4 mM Na2HPO4, 11.7 mM NaH2PO4), phosphate buffer (pH 2.1, 10.0 mM NaH2PO4, 10.5 mM phosphoric acid), and phosphate buffer (pH 11.5, 9.58 mM Na3PO4, 14.2 mM Na2HPO4). Turbidity was measured at 600 nm with increasing or decreasing temperature at a rate of 0.5 °C/min from 5 °C. The measurements were performed for the dark-adapted solution and after successive irradiation with UV light, visible light, and UV light. Each assay was repeated three times with different peptide solutions that were prepared separately. The phase separation property was described by the phase transition temperature (T t), which is the temperature at which the turbidity of the solution reaches half its maximum value.

CC(C)[C@H](NC(=O)CNC(=O)[C@@H]1CCCN1C(=O)[C@H](Cc1ccccc1)NC(=O)CNC(=O)[C@@H](NC(=O)CNC(=O)[C@@H]1CCCN1C(=O)[C@H](Cc1ccccc1)NC(=O)[C@H](CCCCN)NC(=O)c1ccc(N=Nc2ccc(C(=O)N[C@@H](CCCCN)C(=O)N[C@@H](Cc3ccccc3)C(=O)N3CCC[C@H]3C(=O)NCC(=O)N[C@H](C(=O)NCC(=O)N[C@@H](Cc3ccccc3)C(=O)N3CCC[C@H]3C(=O)NCC(=O)N[C@H](C(=O)NCC(=O)O)C(C)C)C(C)C)cc2)cc1)C(C)C)C(=O)NCC(=O)O [Azb-2(K-F2)] (I: KFPGVGFPGVG-OH / II: KFPGVGFPGVG-OH; linker I:N-II:N via X1)
thermal stability of the cis-enriched state, 12 h ([1]; 37 °C for 12 h, light-protected, 50 μM in PBS, UV–vis spectra): remained in a cis-enriched state
time to reach the photostationary state with LED light ([1]; UV-A 365 nm LED of higher irradiance than for the spectrum measurements): approximately 5 min
thermal stability of the cis-enriched state, 3 days ([1]; dark, after 3 days, UV–vis spectra (Figure S3)): retained its cis-isomer-enriched state
peak wavelength π–π*: 330 nm
Tt,UV (phase transition temperature) ([2]; after "UV" conditions 1 h, PBS pH 7.4, OD600, 0.5 °C/min, Tt at half-maximal turbidity, concentrations as in Table 2, n = 3): 35.08 ± 0.30 °C
Tt,UV–vis (phase transition temperature) ([2]; after "UV–vis" conditions 1 h, PBS pH 7.4, OD600, 0.5 °C/min, Tt at half-maximal turbidity, concentrations as in Table 2, n = 3): 32.55 ± 0.67 °C
Tt,UV–vis–UV (phase transition temperature) ([2]; after "UV–vis–UV" conditions 1 h, PBS pH 7.4, OD600, 0.5 °C/min, Tt at half-maximal turbidity, concentrations as in Table 2, n = 3): 35.94 ± 1.15 °C
Tt, UV in phosphate buffer (PB) ([2]; after UV irradiation, PB pH 7.4 (ionic strength 0.100), 3.00 mg/mL (1.27 mM), OD600): 31.42 ± 0.78 °C
Tt, dark in phosphate buffer (PB) ([2]; dark-adapted, PB pH 7.4 (ionic strength 0.100), Azb-2(K-F2) 3.00 mg/mL (1.27 mM), 2(D-F2)-Azb 1.50 mg/mL (0.66 mM), OD600): 27.57 ± 0.18 °C
Tt,dark (phase transition temperature) ([2]; dark-adapted, PBS pH 7.4, OD600, 0.5 °C/min from 5 °C, Tt at half-maximal turbidity, F2-Azb-F2 100 μM, F2-Azb-F2-NH2 50 μM, Azb-2(K-F2) 1.27 mM, 2(F2-D)-Azb 0.66 mM, n = 3 separately prepared solutions): 32.09 ± 0.14 °C
phase separation in acidic phosphate buffer ([2]; phosphate buffer pH 2.1, Azb-2(K-F2) 1.27 mM, 2(F2-D)-Azb 0.66 mM, turbidity OD600): did not show phase separation
phase separation in neutral phosphate buffer ([2]; phosphate buffer pH 7.4, Azb-2(K-F2) 1.27 mM, 2(F2-D)-Azb 0.66 mM, turbidity OD600): underwent thermoresponsive phase separation
phase separation in basic phosphate buffer ([2]; phosphate buffer pH 11.5, Azb-2(K-F2) 1.27 mM, 2(F2-D)-Azb 0.66 mM, turbidity OD600): did not show phase separation
